Experimental data taken from article PMC8945229, “Development and Biological Characterization of a Novel Selective TrkA Agonist with Neuroprotective Properties against Amyloid Toxicity” (Biomedicines, 2022).

Test system: Primary Dorsal Root Ganglia (DRG) neurons
Test: TUNEL assay in primary DRG neurons upon NGF withdrawal
Format: cell-based, mouse
Conditions: 500 nM every 24 h, 48 h, NGF-neutralizing antibody
Description: Primary Dorsal Root Ganglia (DRG) neurons were isolated from P0-P1 mouse pups (C57BL/6J, The Jackson Laboratory, Bar Harbor, ME, USA) as described previously and cultured with Neurobasal medium (21103049 Gibco, Grand Island, NY, USA) containing 2% B27 (17504044, Gibco, Grand Island, NY, USA), 100 ng/mL NGF (N-100, Alomone Labs, Jerusalem, Israel), 1X GlutaMax (35050061, Gibco, Grand Island, NY, USA), 10 mM HEPES (15630080, Gibco, Grand Island, NY, USA), 1% Penicillin/Streptomycin (15070063, Gibco, Grand Island, NY, USA) and 10 μM 5-Fluoro-2′-deoxyuridine (343333, Calbiochem, Darmstadt, Germany). For TUNEL assay, cells were cultured for 14 days in vitro and then the medium was deprived of NGF before adding ENT-A013 (500 nM, every 24 h) along with NGF-neutralizing antibody (N8773, 1:500, Sigma-Aldrich, St. Louis, MO, USA). Cells were then incubated for 48 h before being fixed with 4% PFA and labelled with TUNEL (11684795910, F. Hoffmann–La Roche Ltd., Basel, Switzerland) following the manufacturer’s protocol. Subsequently, cells were immunostained against Tuj1 (1:2000, 801201, Biolegend, Inc., San Diego, CA, USA) and anti-mouse Cy3 (1:1000, Invitrogen, A10521, Waltham, MA, USA) and imaged with a Leica SP8 confocal microscope. […] Cells were then imaged by confocal microscopy and neurite length was measured using Fiji software (NIH, Bethesda, Maryland, USA).

CC12CCC(O)CC1=CCC1C2CCC2(C)C1CCC21CC1C=CBr [ENT-A013, (2′R,3S,17S)-2′-(2-Bromovinyl)-5-Androstene-17,1′-Cyclopropan-3-ol]
NGF deprivation-induced apoptosis (TUNEL, in words): significantly reverse the NGF deprivation-induced apoptosis
